Data set [1] deals with MDR-Mtb HREZSKP. Kind of data set: microbe, parasite or virus in culture. The class given is cell-based. The note with it: Mycobacterium tuberculosis.
Data set [2] concerns DS-Mtb1 (drug sensitive clinical isolate #1). Kind of data set: MIC against clinical strain DS-Mtb1. The class given is cell-based. The note with it: Mycobacterium tuberculosis.
Data set [3] has as its system DS-Mtb2 (drug sensitive clinical isolate #2). The data set can be described thus: MIC against clinical strain DS-Mtb2. The class given is cell-based. The note with it: Mycobacterium tuberculosis, 90% growth inhibition by optical density.
The subject of data set [4] is MDR-Mtb HRERb. The data set can be described thus: microbe, parasite or virus in culture. In kind it is cell-based. The note with it: Mycobacterium tuberculosis.
The test system of data set [5] is XDR-Mtb HREKO. Kind of data set: microbe, parasite or virus in culture. The class given is cell-based. The note with it: Mycobacterium tuberculosis.
Data set [6] deals with MDR-Mtb HREKP. Kind of data set: microbe, parasite or virus in culture. In kind it is cell-based. The note with it: Mycobacterium tuberculosis.
Data set [7] concerns XDR-Mtb HRESKO. The data set can be described thus: microbe, parasite or virus in culture. In kind it is cell-based. The conditions noted are these: Mycobacterium tuberculosis.
In data set [8] the target is T1, CYP3A4 (Homo sapiens, UniProt P08684). The data set can be described thus: Time dependent inhibition of human CYP3A4. The conditions noted are these: at 10 μM.
Data set [9] addresses T1, CYP3A4. The data set can be described thus: Human cytochrome P-450 inhibition, CYP 3A4. The conditions noted are these: panel of human cytochrome P-450 enzymes.
The nature of data set [10]: in vivo. The conditions noted are these: rat, iv, 1 mg/kg.
For data set [11] the following is noted: rat, microsomes.
Data set [12] in a line: in vitro. The class given is in vitro ADME.
The test system of data set [13] is Mtb H37Rv. Kind of data set: MIC against replicating Mtb H37Rv, dual read-out. The class given is cell-based. The note with it: Mycobacterium tuberculosis.
Data set [14] concerns sensitive, MDR and XDR clinical Mtb strains. The class given is cell-based, Mycobacterium tuberculosis. The conditions noted are these: range over the DS, MDR and XDR clinical strains of Table 2.

Values after ≈ are worked out from the molar mass of the structure shown. Values joined by “and” are separate entries in the source; they are usually repeats but may differ in a detail not shown here. Equal values may be shown once.

T1 sequence (P08684 whole entry): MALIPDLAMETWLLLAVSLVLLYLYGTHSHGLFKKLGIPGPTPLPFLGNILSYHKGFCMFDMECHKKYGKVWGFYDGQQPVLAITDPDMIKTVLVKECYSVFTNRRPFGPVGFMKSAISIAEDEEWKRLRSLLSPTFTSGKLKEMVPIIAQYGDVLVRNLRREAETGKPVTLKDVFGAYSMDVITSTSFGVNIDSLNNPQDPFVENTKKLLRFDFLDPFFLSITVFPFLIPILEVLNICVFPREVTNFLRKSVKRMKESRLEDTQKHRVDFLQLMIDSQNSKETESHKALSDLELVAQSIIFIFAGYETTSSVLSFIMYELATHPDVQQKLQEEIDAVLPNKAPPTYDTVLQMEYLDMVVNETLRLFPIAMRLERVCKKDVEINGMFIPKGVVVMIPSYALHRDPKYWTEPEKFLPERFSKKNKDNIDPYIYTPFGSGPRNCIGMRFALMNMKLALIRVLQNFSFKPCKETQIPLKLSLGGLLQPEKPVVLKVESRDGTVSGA

Regarding `O=[N+]([O-])c1cn2c(n1)OC[C@@H](OCc1ccc(OC(F)(F)F)cc1)C2` [PA-824, reference compound], the MIC in data set [1] was 0.5 µM to 0.9 µM and 0.2 µg/mL to 0.3 µg/mL; in data set [2] it was 0.5 µM to 0.9 µM and 0.2 µg/mL to 0.3 µg/mL; in [3] it was greater than 5 µg/mL; in data set [4] it was 0.5 µM to 0.9 µM and 0.2 µg/mL to 0.3 µg/mL; in data set [5] it was 0.08 µg/mL (≈ 0.223 µM); in data set [6], 0.5 µM to 0.9 µM and 0.2 µg/mL to 0.3 µg/mL. Besides, the MIC in [7] was found to be 0.3 µg/mL (≈ 0.835 µM).
As for `Cc1ccc2nc(C)c(C(=O)NCc3ccccc3)n2c1` [Compound 9], the MIC was less than 0.01 µg/mL in data set [1]; 0.04 µM to 0.07 µM and 0.01 µg/mL to 0.02 µg/mL in data set [2]; less than 0.01 µg/mL in data set [3]; 0.63 µg/mL (≈ 2.26 µM) in [4]; less than 0.01 µg/mL in data set [5]; less than 0.01 µg/mL in data set [6]. The MIC in [7] was less than 0.01 µg/mL.
As for `Cc1ccn2c(C(=O)NCc3ncc(C(F)(F)F)cc3Cl)c(C)nc2c1` [Compound 13], the “time dependent inhibition of human CYP3A4” value in [8] is recorded as “time dependent inhibitors”. Besides, testing at 10 µM in data set [9] gave an inhibition of 0%. Besides, the MIC in [1] is 2.5 µg/mL (≈ 6.53 µM); in data set [2] it was 0.3 µg/mL (≈ 0.784 µM); in data set [3], 0.3 µg/mL (≈ 0.784 µM); in [4], 13 µM to 26 µM and 5 µg/mL to 10 µg/mL; in [5], 0.3 µg/mL (≈ 0.784 µM); in [6] it was 0.2 µg/mL (≈ 0.523 µM). Besides, the MIC in [7] turned out to be 0.3 µg/mL (≈ 0.784 µM). In addition, in data set [10], the clearance – broadly, the rate of elimination divided by the concentration – was found to be 25 mL/min/kg. The “% metabolized” value in [11] was found to be 19%. Further, the free fraction (fraction unbound) – broadly, free concentration divided by total concentration – in [12] amounted to 0.089.
Regarding `Cc1ccn2c(C(=O)NCc3ccc(Oc4ccc(F)cc4)cc3)c(C)nc2c1` [Compound 18], the “time dependent inhibition of human CYP3A4” value in data set [8] is recorded as “time dependent inhibitors”. The MIC was 0.03 µM to 0.8 µM and 0.01 µg/mL to 0.3 µg/mL in [1]; less than 0.01 µg/mL in data set [2]; less than 0.01 µg/mL in data set [3]; less than 0.005 µM in [13]; 0.31 µg/mL (≈ 0.796 µM) in data set [4]; less than 0.01 µg/mL in data set [5]. Moreover, the MIC in data set [6] and in data set [7] was less than 0.01 µg/mL in each case. For the same compound, the “MIC range against the clinical strains” value in data set [14] was less than 0.03 to 0.8 µM.

The record behind these values is article PMC3733398 (ACS medicinal chemistry letters, 2013).
